Measurements reported in BindingDB's records for doi:10.1124/mol.58.6.1375 (University of Alabama At Birmingham, 2000).

Target: T1, Gamma-aminobutyric acid receptor subunit rho-3 (Homo sapiens, UniProt A8MPY1)
T1 sequence (A8MPY1 whole entry): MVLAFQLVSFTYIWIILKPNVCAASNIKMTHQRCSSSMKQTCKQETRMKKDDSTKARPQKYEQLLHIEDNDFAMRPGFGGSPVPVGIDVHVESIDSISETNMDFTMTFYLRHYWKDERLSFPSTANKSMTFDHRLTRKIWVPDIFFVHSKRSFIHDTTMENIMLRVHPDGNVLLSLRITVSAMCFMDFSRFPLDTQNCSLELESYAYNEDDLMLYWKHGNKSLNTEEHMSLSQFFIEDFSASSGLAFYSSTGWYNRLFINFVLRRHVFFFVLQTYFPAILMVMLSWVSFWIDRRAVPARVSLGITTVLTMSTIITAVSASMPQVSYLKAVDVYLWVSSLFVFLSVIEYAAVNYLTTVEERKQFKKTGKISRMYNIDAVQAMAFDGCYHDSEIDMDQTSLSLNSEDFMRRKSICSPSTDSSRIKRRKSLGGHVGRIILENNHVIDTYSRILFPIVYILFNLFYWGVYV

SMILES | Ki [nM]
NCc1cc(=O)[nH]o1 | 460
O=C(O)C1=CCNCC1 [1,2,3,6-Tetrahydro-pyridine-4-carboxylic acid] | > 10000
O=C(O)Cc1c[nH]cn1 [1H-imidazol-4-ylacetic acid] | 150

More lines, now with the values ahead:

Ki [nM] | SMILES
580 | NCCCC(=O)O [4-amino-n-[2,3-3H]butyric acid]
360 | N[C@@H]1C(=O)N2C(C(=O)O)=C(CSc3cnn[nH]3)CS[C@H]12 [CAS_37539-03-0]
